Measurements taken from paper PMC11079024, “Identification of a family of species-selective complex I inhibitors as potential anthelmintics” (Nature Communications, 2024).
Read-outs that look alike come from different tables or passages of the source.

Legend:
[1] = target: C. elegans (N2) complex I (NADH:ubiquinone oxidoreductase) (Caenorhabditis elegans, UniProt P24887+Q93873+Q94360); assay: biochemical; format: biochemical; conditions: for Log IC50 C. elegans complex I: log10 of IC50 in µM
Procedure, shortened: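 Activity expressed as percent of solvent control. Complex I rate came from DCIP reduction at 600 nm (initial linear slope, 15 min) with NADH and decylubiquinone as substrates, plus antimycin A and KCN, in pH 7.5 KPi/BSA buffer. Isolated, thrice freeze-thawed mitochondria used at 0.2 mg/mL.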

[2] = target: B. taurus (heart) complex I (Bos taurus, UniProt P03887+P17694+P42026); assay: biochemical; format: biochemical; conditions: for IC50: B. taurus heart mitochondria, read-out: B. taurus Complex I IC50; for Log IC50 B. taurus complex I: log10 of IC50 in µM, B. taurus mitochondria
Sequence of B. taurus (heart) complex I (P03887 whole entry): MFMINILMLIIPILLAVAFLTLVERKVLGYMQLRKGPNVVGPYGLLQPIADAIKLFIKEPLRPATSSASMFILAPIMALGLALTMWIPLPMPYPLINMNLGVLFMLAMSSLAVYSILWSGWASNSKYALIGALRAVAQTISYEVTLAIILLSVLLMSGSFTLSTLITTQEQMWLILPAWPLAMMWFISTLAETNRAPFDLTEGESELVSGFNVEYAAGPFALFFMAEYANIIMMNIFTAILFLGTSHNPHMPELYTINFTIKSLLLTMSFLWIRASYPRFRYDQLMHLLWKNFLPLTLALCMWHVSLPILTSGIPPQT
Sequence of B. taurus (heart) complex I (P17694 34-463): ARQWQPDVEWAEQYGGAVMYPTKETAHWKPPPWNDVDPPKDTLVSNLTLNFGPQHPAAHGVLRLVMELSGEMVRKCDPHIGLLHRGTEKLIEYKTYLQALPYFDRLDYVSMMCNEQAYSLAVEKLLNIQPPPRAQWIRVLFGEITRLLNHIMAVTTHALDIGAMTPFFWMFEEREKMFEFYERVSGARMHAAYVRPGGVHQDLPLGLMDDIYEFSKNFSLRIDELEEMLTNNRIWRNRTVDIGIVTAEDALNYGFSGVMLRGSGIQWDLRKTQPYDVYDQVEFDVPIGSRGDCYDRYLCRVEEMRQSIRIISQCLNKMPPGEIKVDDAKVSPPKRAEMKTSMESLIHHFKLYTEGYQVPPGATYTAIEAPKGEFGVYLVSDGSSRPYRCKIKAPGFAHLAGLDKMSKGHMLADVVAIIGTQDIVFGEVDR
Sequence of B. taurus (heart) complex I (P42026 38-216): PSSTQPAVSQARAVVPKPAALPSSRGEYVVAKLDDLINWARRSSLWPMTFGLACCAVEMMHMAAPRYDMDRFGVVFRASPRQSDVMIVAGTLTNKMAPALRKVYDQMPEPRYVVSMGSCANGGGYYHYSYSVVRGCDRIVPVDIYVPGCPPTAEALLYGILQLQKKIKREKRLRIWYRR
Procedure, shortened: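 Complex I activity followed as DCIP reduction (600 nm, 30 s reads, 15 min) with 80 μM NADH and 60 μM decylubiquinone in 25 mM KPi pH 7.5 containing 2 μM antimycin A and 2 mM KCN. Freeze-thawed mouse or bovine heart mitochondria at 0.2 mg/mL; initial-rate percent of solvent control, single-point 100 μM or dose-response.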

[3] = in vitro complex I dose response on C. elegans mitochondria, average of at least two biological replicates, fit in R (DRC), read-out: IC50 C. elegans complex I
[4] = wild-type (N2) mitochondria, read-out: C. elegans Complex I IC50
[5] = wild-type C. elegans mitochondria, estimated from fitted dose-response curves, read-out: C. elegans Complex I IC50
[6] = estimated from fitted dose-response curves

Sequence of C. elegans (N2) complex I (NADH:ubiquinone oxidoreductase) (Q94360 17-199): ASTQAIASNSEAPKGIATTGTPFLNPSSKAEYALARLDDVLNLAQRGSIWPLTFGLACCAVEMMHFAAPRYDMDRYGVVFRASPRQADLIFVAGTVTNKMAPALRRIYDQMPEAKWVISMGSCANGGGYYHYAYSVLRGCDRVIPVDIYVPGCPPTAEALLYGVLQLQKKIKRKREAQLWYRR
Sequence of C. elegans (N2) complex I (NADH:ubiquinone oxidoreductase) (P24887 whole entry): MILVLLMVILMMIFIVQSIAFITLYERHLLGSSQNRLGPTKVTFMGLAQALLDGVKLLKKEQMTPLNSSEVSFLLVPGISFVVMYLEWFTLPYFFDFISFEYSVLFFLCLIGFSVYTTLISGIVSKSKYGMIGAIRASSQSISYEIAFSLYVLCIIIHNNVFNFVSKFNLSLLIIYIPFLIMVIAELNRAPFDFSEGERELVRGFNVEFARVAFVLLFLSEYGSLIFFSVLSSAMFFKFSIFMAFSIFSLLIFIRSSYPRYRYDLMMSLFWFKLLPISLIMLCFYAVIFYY
Sequence of C. elegans (N2) complex I (NADH:ubiquinone oxidoreductase) (Q93873 31-482): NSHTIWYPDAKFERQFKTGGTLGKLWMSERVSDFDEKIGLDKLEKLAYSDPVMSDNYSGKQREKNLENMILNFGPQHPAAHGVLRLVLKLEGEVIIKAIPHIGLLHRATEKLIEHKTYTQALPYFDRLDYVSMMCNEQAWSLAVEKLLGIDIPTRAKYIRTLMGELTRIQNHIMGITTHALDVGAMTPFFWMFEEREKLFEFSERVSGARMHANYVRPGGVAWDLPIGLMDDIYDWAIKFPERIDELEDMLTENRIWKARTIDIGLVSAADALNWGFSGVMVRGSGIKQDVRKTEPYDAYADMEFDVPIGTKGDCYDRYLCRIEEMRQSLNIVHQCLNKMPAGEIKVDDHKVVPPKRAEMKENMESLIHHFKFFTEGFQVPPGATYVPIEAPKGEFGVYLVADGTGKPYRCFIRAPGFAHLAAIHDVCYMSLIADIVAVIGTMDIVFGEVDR

Cc1ccccc1OCCCCn1cnc2ccccc21 [Compound 7732524]
remaining activity at 0.0001 µM ([1]; C. elegans mitochondria, 0.0001 µM, Mean, read-out: in vitro complex I activity relative to solvent control): 109% | remaining activity at 0.0005 µM ([1]; C. elegans mitochondria, 0.0005 µM, Mean, read-out: in vitro complex I activity relative to solvent control): 117% | remaining activity at 0.001 µM ([1]; C. elegans mitochondria, 0.001 µM, Mean, read-out: in vitro complex I activity relative to solvent control): 115% | remaining activity at 0.0025 µM ([1]; C. elegans mitochondria, 0.0025 µM, Mean, read-out: in vitro complex I activity relative to solvent control): 106% | remaining activity at 0.005 µM ([1]; C. elegans mitochondria, 0.005 µM, Mean, read-out: in vitro complex I activity relative to solvent control): 87.1% | remaining activity at 0.013 µM ([1]; C. elegans mitochondria, 0.013 µM, Mean, read-out: in vitro complex I activity relative to solvent control): 95.4% | remaining activity at 0.025 µM ([1]; C. elegans mitochondria, 0.025 µM, Mean, read-out: in vitro complex I activity relative to solvent control): 84.9% | remaining activity at 0.063 µM ([1]; C. elegans mitochondria, 0.063 µM, Mean, read-out: in vitro complex I activity relative to solvent control): 60.5% | remaining activity at 0.063 µM ([1]; C. elegans mitochondria, 0.063 µM, single replicate, read-out: in vitro complex I activity relative to solvent control): 65% | remaining activity at 0.125 µM ([1]; C. elegans mitochondria, 0.125 µM, Mean, read-out: in vitro complex I activity relative to solvent control): 45.4% | remaining activity at 0.125 µM ([1]; C. elegans mitochondria, 0.125 µM, single replicate, read-out: in vitro complex I activity relative to solvent control): 44.7% | remaining activity at 0.313 µM ([1]; C. elegans mitochondria, 0.313 µM, Mean, read-out: in vitro complex I activity relative to solvent control): 25.3% | remaining activity at 0.313 µM ([1]; C. elegans mitochondria, 0.313 µM, single replicate, read-out: in vitro complex I activity relative to solvent control): 21% | remaining activity at 0.625 µM ([1]; C. elegans mitochondria, 0.625 µM, Mean, read-out: in vitro complex I activity relative to solvent control): 10.1% | remaining activity at 0.625 µM ([1]; C. elegans mitochondria, 0.625 µM, single replicate, read-out: in vitro complex I activity relative to solvent control): 12.2% | remaining activity at 1.5 µM ([1]; C. elegans mitochondria, 1.5 µM, Mean, read-out: in vitro complex I activity relative to solvent control): 2.78% | remaining activity at 3 µM ([1]; C. elegans mitochondria, 3 µM, Mean, read-out: in vitro complex I activity relative to solvent control): 0.645% | remaining activity at 15 µM ([1]; C. elegans mitochondria, 15 µM, Mean, read-out: in vitro complex I activity relative to solvent control): 0.827% | remaining activity at 37.5 µM ([1]; C. elegans mitochondria, 37.5 µM, Mean, read-out: in vitro complex I activity relative to solvent control): 0.871% | remaining activity at 75 µM ([1]; C. elegans mitochondria, 75 µM, Mean, read-out: in vitro complex I activity relative to solvent control): 6.44% | activity at 0.0001 µM ([1]; Dose 0.0001 µM, read-out: C. elegans mitochondrial complex I activity): 130% | activity at 0.0005 µM ([1]; Dose 0.0005 µM, read-out: C. elegans mitochondrial complex I activity): 145% | activity at 0.001 µM ([1]; Dose 0.001 µM, read-out: C. elegans mitochondrial complex I activity): 142% | activity at 0.0025 µM ([1]; Dose 0.0025 µM, read-out: C. elegans mitochondrial complex I activity): 138% | activity at 0.005 µM ([1]; Dose 0.005 µM, read-out: C. elegans mitochondrial complex I activity): 126% | activity at 0.013 µM ([1]; Dose 0.013 µM, read-out: C. elegans mitochondrial complex I activity): 120% | activity at 0.025 µM ([1]; Dose 0.025 µM, read-out: C. elegans mitochondrial complex I activity): 94.3% | activity at 0.063 µM ([1]; Dose 0.063 µM, read-out: C. elegans mitochondrial complex I activity): 78.2% | activity at 0.125 µM ([1]; Dose 0.125 µM, read-out: C. elegans mitochondrial complex I activity): 53.5% | activity at 0.313 µM ([1]; Dose 0.313 µM, read-out: C. elegans mitochondrial complex I activity): 30.1% | activity at 0.625 µM ([1]; Dose 0.625 µM, read-out: C. elegans mitochondrial complex I activity): 10.6% | activity at 1.5 µM ([1]; Dose 1.5 µM, read-out: C. elegans mitochondrial complex I activity): 3.27% | activity at 3 µM ([1]; Dose 3 µM, read-out: C. elegans mitochondrial complex I activity): 1.97% | activity at 15 µM ([1]; Dose 15 µM, read-out: C. elegans mitochondrial complex I activity): 1.08% | activity at 37.5 µM ([1]; Dose 37.5 µM, read-out: C. elegans mitochondrial complex I activity): 3.31% | activity at 75 µM ([1]; Dose 75 µM, read-out: C. elegans mitochondrial complex I activity): 6.44% | remaining activity at 0.0001 µM ([1]; dose 0.0001 µM, wild-type C. elegans, mean of replicates, read-out: in vitro complex I activity relative to solvent control, Mean): 109% | remaining activity at 0.0005 µM ([1]; dose 0.0005 µM, wild-type C. elegans, mean of replicates, read-out: in vitro complex I activity relative to solvent control, Mean): 117% | remaining activity at 0.001 µM ([1]; dose 0.001 µM, wild-type C. elegans, mean of replicates, read-out: in vitro complex I activity relative to solvent control, Mean): 115% | remaining activity at 0.0025 µM ([1]; dose 0.0025 µM, wild-type C. elegans, mean of replicates, read-out: in vitro complex I activity relative to solvent control, Mean): 106% | remaining activity at 0.005 µM ([1]; dose 0.005 µM, wild-type C. elegans, mean of replicates, read-out: in vitro complex I activity relative to solvent control, Mean): 87.1% | remaining activity at 0.013 µM ([1]; dose 0.013 µM, wild-type C. elegans, mean of replicates, read-out: in vitro complex I activity relative to solvent control, Mean): 95.4% | remaining activity at 0.025 µM ([1]; dose 0.025 µM, wild-type C. elegans, mean of replicates, read-out: in vitro complex I activity relative to solvent control, Mean): 84.9% | remaining activity at 0.063 µM ([1]; dose 0.063 µM, wild-type C. elegans, mean of replicates, read-out: in vitro complex I activity relative to solvent control, Mean): 60.5% | remaining activity at 0.063 µM ([1]; dose 0.063 µM, wild-type C. elegans, single replicate, read-out: in vitro complex I activity relative to solvent control, individual replicate): 65% | remaining activity at 0.125 µM ([1]; dose 0.125 µM, wild-type C. elegans, mean of replicates, read-out: in vitro complex I activity relative to solvent control, Mean): 45.4% | remaining activity at 0.125 µM ([1]; dose 0.125 µM, wild-type C. elegans, single replicate, read-out: in vitro complex I activity relative to solvent control, individual replicate): 44.7% | remaining activity at 0.313 µM ([1]; dose 0.313 µM, wild-type C. elegans, mean of replicates, read-out: in vitro complex I activity relative to solvent control, Mean): 25.3% | remaining activity at 0.313 µM ([1]; dose 0.313 µM, wild-type C. elegans, single replicate, read-out: in vitro complex I activity relative to solvent control, individual replicate): 21% | remaining activity at 0.625 µM ([1]; dose 0.625 µM, wild-type C. elegans, mean of replicates, read-out: in vitro complex I activity relative to solvent control, Mean): 10.1% | remaining activity at 0.625 µM ([1]; dose 0.625 µM, wild-type C. elegans, single replicate, read-out: in vitro complex I activity relative to solvent control, individual replicate): 12.2% | remaining activity at 1.5 µM ([1]; dose 1.5 µM, wild-type C. elegans, mean of replicates, read-out: in vitro complex I activity relative to solvent control, Mean): 2.78% | remaining activity at 3 µM ([1]; dose 3 µM, wild-type C. elegans, mean of replicates, read-out: in vitro complex I activity relative to solvent control, Mean): 0.645% | remaining activity at 15 µM ([1]; dose 15 µM, wild-type C. elegans, mean of replicates, read-out: in vitro complex I activity relative to solvent control, Mean): 0.827% | remaining activity at 37.5 µM ([1]; dose 37.5 µM, wild-type C. elegans, mean of replicates, read-out: in vitro complex I activity relative to solvent control, Mean): 0.871% | remaining activity at 75 µM ([1]; dose 75 µM, wild-type C. elegans, mean of replicates, read-out: in vitro complex I activity relative to solvent control, Mean): 6.44% | IC50 [1, 3]: 140 nM | Log IC50 C. elegans complex I ([1]; C. elegans mitochondria): -0.85 µM | IC50 [1, 4]: 140 nM | IC50 ([1]; wild-type (N2) mitochondria, read-out: C. elegans complex I IC50): 104 nM | IC50 [1, 5]: 140 nM | IC50 [2, 6]: 310 nM | activity at 0.0001 µM ([2]; Dose 0.0001 µM, read-out: B. taurus mitochondrial complex I activity): 96.6% | activity at 0.0005 µM ([2]; Dose 0.0005 µM, read-out: B. taurus mitochondrial complex I activity): 102% | activity at 0.001 µM ([2]; Dose 0.001 µM, read-out: B. taurus mitochondrial complex I activity): 97% | activity at 0.0025 µM ([2]; Dose 0.0025 µM, read-out: B. taurus mitochondrial complex I activity): 93.8% | activity at 0.005 µM ([2]; Dose 0.005 µM, read-out: B. taurus mitochondrial complex I activity): 78.2% | activity at 0.013 µM ([2]; Dose 0.013 µM, read-out: B. taurus mitochondrial complex I activity): 91.3% | activity at 0.025 µM ([2]; Dose 0.025 µM, read-out: B. taurus mitochondrial complex I activity): 85.2% | activity at 0.063 µM ([2]; Dose 0.063 µM, read-out: B. taurus mitochondrial complex I activity): 72.1% | activity at 0.125 µM ([2]; Dose 0.125 µM, read-out: B. taurus mitochondrial complex I activity): 69.1% | activity at 0.313 µM ([2]; Dose 0.313 µM, read-out: B. taurus mitochondrial complex I activity): 48.9% | activity at 0.625 µM ([2]; Dose 0.625 µM, read-out: B. taurus mitochondrial complex I activity): 30.4% | activity at 1.5 µM ([2]; Dose 1.5 µM, read-out: B. taurus mitochondrial complex I activity): 15.7% | activity at 3 µM ([2]; Dose 3 µM, read-out: B. taurus mitochondrial complex I activity): 9.12% | activity at 15 µM ([2]; Dose 15 µM, read-out: B. taurus mitochondrial complex I activity): 0.75% | activity at 37.5 µM ([2]; Dose 37.5 µM, read-out: B. taurus mitochondrial complex I activity): 1.46% | activity at 75 µM ([2]; Dose 75 µM, read-out: B. taurus mitochondrial complex I activity): 1.41% | Log IC50 B. taurus complex I [2]: -0.51 µM

Cc1ccc2nc(C(C)c3ccc(CC(C)C)cc3)[nH]c2c1 (stereo not shown) [STL482096]
IC50 [1, 3]: 910 nM | Log IC50 C. elegans complex I ([1]; C. elegans mitochondria): -0.04 µM | IC50 [1, 4]: 910 nM | IC50 [1, 5]: 910 nM | IC50 [2, 6]: 12300 nM | Log IC50 B. taurus complex I [2]: 1.09 µM

Cc1nc2ccccc2n1Cc1ccccc1Cl [Compound 6707368]
IC50 [1, 3]: 560 nM | Log IC50 C. elegans complex I ([1]; C. elegans mitochondria): -0.25 µM | IC50 [1, 4]: 560 nM | IC50 [1, 5]: 560 nM | IC50 [2, 6]: 3960 nM | Log IC50 B. taurus complex I [2]: 0.60 µM

Cc1ccc(Cn2c(C(C)C)nc3ccccc32)cc1 [Compound 6586153]
IC50 [1, 3]: 9430 nM | Log IC50 C. elegans complex I ([1]; C. elegans mitochondria): 0.97 µM | IC50 [1, 4]: 9430 nM | IC50 ([1]; wild-type C. elegans mitochondria, read-out: C. elegans Complex I IC50): 9430 nM | IC50 [2]: 57600 nM | Log IC50 B. taurus complex I [2]: 1.76 µM
